{"source": "patent US20240327339A1", "about": "“COMPOSITIONS AND METHODS FOR TREATING AND PREVENTING VIRAL INFECTIONS” (priority 2021, published 2024)", "key": {"[1]": {"tested_on": "Memphis-37", "test": "In vitro probenecid inhibition assay, Memphis-37 (plaque assay)", "type": "cell-based, human RSV strain A", "details": "for IC50 / IC90: human respiratory syncytial virus; for virus replication compared to control (DMSO only): Vero E6, HEp-2 and NHBE cells"}, "[2]": {"tested_on": "Measles virus", "test": "Measles virus plaque assay", "type": "cell-based", "details": "HEp2 and Vero cells treated before infection; MOI=0.01; 72 hours", "method": "(§1) Plate 4×10^4/well of Vero-E6 or Hep-2 cells to be 95-100% confluent the next day. The next day make fresh dilutions of Probenecid were made. From a stock concentration of 10 mM in 100% DMSO, dilutions were made with half DMSO and half DMEM with 4% BSA fraction. FBS inhibits some viruses. Media was decanted and dilutions of probenecid were added to cells. Controls: DMSO/Media mixture, Media with no Probenecid, Media with no virus. Probenecid dilutions were left on cells for 24 hrs. After 24 hrs, media was decanted and virus was added (MOI=0.01/well). Virus was diluted to MOI=0.01 per 100 uL with DMEM. Left virus inoculum on cells for 1 hr. After 1 hr, infection media was decanted and replaced with dilutions of Probenecid. For Immunostaining, plates were left for 24 hrs before fixing cells. For Plaque Assays, plates were left for 72 hrs before freezing at −80 C.\nFor plaque assays of probenecid treated cells, cells were treated with various concentrations of Probenecid before being infected with Measles virus (MOI=0.01). After 72 hours, cells were frozen until plaque assay. Plaque concentrations are recorded as log 10 PFU/mL."}, "[3]": {"tested_on": "adenovirus serotype 5 (Ad5)", "test": "Ad5 infection of A549 cells", "type": "cell-based", "details": "only limited conditions tested"}, "[4]": {"tested_on": "SARS-CoV-2", "details": "cited from earlier work"}, "[5]": {"tested_on": "Measles virus", "test": "Measles virus syncytia immunostaining", "type": "cell-based", "method": "as §1\nThe immunostaining protocol generally included fixing cells with 4% formaldehyde in PBS (50 uL) for 15-20 min at room temp, rinsing cells 3× with PBS (100 uL), and optionally storing cells at 4° C. in PBS until ready to stain. Permeabilizing cells with 0.05% TritonX-100 in PBS (100 uL) for 10 min at room temp, rinsing cells 3× with PBS (100 uL), blocking with 3% BSA-PBS (100 uL) for 1 hr at 37° C. or overnight at 4° C. Blocking solution was removed and cells were incubated with primary antibody (mouse mAb uNP, Millipore MAB8906) at 1:10,000 dilution (100 uL) for 1 hour (antibody diluted in 3% BSA-PBS). Cells were washed 3× with KPL Buffer (100 uL), incubated for 45 min with secondary antibody (Goat uMouse conjugated with Alex flour 488) in the dark at 37° C. (antibody diluted in 3% BSA-PBS). Cells were washed 3× with KPL Buffer in the dark (100 uL), rapidly stained with DAPI (1 ug/mL) for 10 min in the dark, washed 3× with PBS in the dark and stored in 200 ul of PBS until visualization.\nExperiments were designed to test the prophylactic effect of probenecid on measles virus infection. Cells were infected with measle virus with, or without, probenecid treatment and immunostained for syncytia. […]"}, "[6]": {"test": "Preliminary virology data used for pediatric simulations", "details": "virus not stated", "method": "Simulations were also conducted in pediatric subjects. Allometric scaling based on body weights used as an empirical approach to predict concentrations in pediatric subjects. 10 mg/kg qd, 10 mg/kg bid, 20 mg/kg qd, 20 mg/kg bid dose was simulated. IC50 from preliminary virology data is 1 nM."}, "[7]": {"tested_on": "Zika (MR766) virus", "test": "Zika assay in Vero-P cells", "type": "cell-based", "details": "MOI=0.1, FIG. 11", "text": "(§2) Experiments Conducted in Vero-P Cells."}, "[8]": {"tested_on": "E. coli", "test": "Killing of free bacteria"}, "[9]": {"tested_on": "RSV B1", "test": "In vitro probenecid inhibition assay, RSV B1 (plaque assay)", "type": "cell-based, respiratory syncytial virus (RSV)", "details": "for IC50 / IC90: human respiratory syncytial virus; for IC90: up to 100 μM; for virus replication compared to control (DMSO only): Vero E6, HEp-2 and NHBE cells"}, "[10]": {"tested_on": "SLC22A8 (OAT3) transcripts", "test": "OAT3 expression in HEp-2 cells (qPCR)", "details": "HEp-2 cells treated with IC90 of probenecid [7.2 uM] for 24 h"}, "[11]": {"tested_on": "Mumps (Jones) virus", "test": "Mumps assay in Vero-P cells", "type": "cell-based", "details": "MOI=0.1, FIG. 10", "text": "as §2"}, "[12]": {"tested_on": "hMPV CAN83 (A2 strain)", "test": "hMPV challenge of BALB/c mice", "type": "in vivo", "details": "24 h prior to or 24 h post infection; lungs 5 dpi; FIGS. 26A-26B", "method": "BALB/c mice were prophylactically (24 h prior to) or post-infection (24 h post) (“treatment”) treated with probenecid at the indicated concentrations. Mice (n=5/sex/group) were challenged i.n. with 1e6 PFU hMPV CAN83 (A2 strain). Lungs were collected 5 dpi and a plaque assay performed. The results are illustrated in FIGS. 26A-26B."}, "[13]": {"tested_on": "RSV A2", "test": "In vivo inhibition study, BALB/c mouse model of RSV infection", "design": "species or system BALB/c mice", "details": "2 or 200 mg/kg i.p., 24 h before or 24 h after infection, days 3, 5, 7 pi"}, "[14]": {"details": "in vivo, cited from earlier work"}, "[15]": {"details": "Vero C1008, Prophylaxis (24 h before infection), Vero E6 cells"}, "[16]": {"details": "Vero C1008, Treatment (24 h after infection), Vero E6 cells"}, "[17]": {"details": "Prophylaxis (24 h before infection), HEp-2 cells"}, "[18]": {"details": "Prophylaxis (24 h before infection), NHBE cells"}, "[19]": {"details": "Treatment (24 h after infection), HEp-2 cells"}, "[20]": {"details": "Treatment (24 h after infection), NHBE cells"}}, "note": "Entries after “also recorded” stand apart in the source; their conditions may differ.", "data": [{"smiles": "CCCN(CCC)S(=O)(=O)c1ccc(C(=O)O)cc1", "note": "[Probenecid, 4-[(dipropylamino)sulfonyl] benzoic acid]", "values": [{"measurement": "IC50", "setting": "[1]; [15]", "value": 30, "unit": "nM"}, {"measurement": "IC90", "setting": "[1]; [15]", "value": 270, "unit": "nM"}, {"measurement": "IC50", "setting": "[1]; [16]", "value": 400, "unit": "nM"}, {"measurement": "IC90", "setting": "[1]; [16]", "value": 3600, "unit": "nM"}, {"measurement": "IC50", "setting": "[1]; [17]", "value": 40, "unit": "nM"}, {"measurement": "IC90", "setting": "[1]; [17]", "value": 360, "unit": "nM"}, {"measurement": "IC50", "setting": "[1]; [18]", "value": 160, "unit": "nM"}, {"measurement": "IC90", "setting": "[1]; [18]", "value": 1440, "unit": "nM"}, {"measurement": "IC50", "setting": "[1]; [19]", "value": 500, "unit": "nM"}, {"measurement": "IC90", "setting": "[1]; [19]", "value": 4500, "unit": "nM"}, {"measurement": "IC50", "setting": "[1]; [20]", "value": 200, "unit": "nM"}, {"measurement": "IC90", "setting": "[1]; [20]", "value": 1800, "unit": "nM"}, {"measurement": "virus replication compared to control (DMSO only)", "setting": "[1]; prophylaxis 24 h before Memphis-37 infection, FIG. 5", "value": "significantly (**** p<0.0001) inhibited the virus replication"}, {"measurement": "virus replication compared to control (DMSO only)", "setting": "[1]; treated 24 h after Memphis-37 infection, FIG. 6", "value": "significantly (**** p<0.0001) inhibited the virus replication"}, {"measurement": "plaque titers", "setting": "[2]", "value": "below the limit of detection"}, {"measurement": "effect on infection", "setting": "[3]", "value": "did not statistically significantly reduce infection"}, {"measurement": "efficacy at treating SARS-CoV-2", "setting": "[4]; hamsters, 2 mg/kg and 200 mg/kg", "value": "both effective at treating SARS-CoV-2 in hamsters in vivo"}, {"measurement": "effect on virus replication and inflammatory response", "setting": "[4]; in vitro and pre-clinical hamster studies (WO 2021/207606)", "value": "block replication of the SARS-CoV-2 virus and the associated acute inflammatory response to the infection"}, {"measurement": "syncytia per well", "setting": "[5]; 1 uM Probenecid, 24 hrs, NP fluorescence stain", "value": "no syncytia were detected"}, {"measurement": "concentration also effective on MeV", "setting": "[5]; Hep-2 cells, other assays", "value": 0.03, "unit": "UM"}, {"measurement": "IC50", "setting": "[5]; Measles morbillivirus, probenecid dilution assay, FIG. 14A, read-out: IC50 (average syncytia per well)", "value": 0.8, "unit": "nM"}, {"measurement": "IC50", "setting": "[6]", "value": 1, "unit": "nM"}, {"measurement": "inhibition of virus replication", "setting": "[7]", "value": "picomolar levels of probenecid were effective at inhibiting virus replication"}, {"measurement": "killing of bacteria", "setting": "[8]", "value": "did not kill bacteria"}, {"measurement": "IC50", "setting": "[9]; [15]", "value": 850, "unit": "nM"}, {"measurement": "IC90", "setting": "[9]; [15]", "value": "> 100000", "unit": "nM"}, {"measurement": "IC50", "setting": "[9]; [16]", "value": 2000, "unit": "nM"}, {"measurement": "IC90", "setting": "[9]; [16]", "value": "> 100000", "unit": "nM"}, {"measurement": "IC50", "setting": "[9]; [17]", "value": 800, "unit": "nM"}, {"measurement": "IC90", "setting": "[9]; [17]", "value": "> 100000", "unit": "nM"}, {"measurement": "IC50", "setting": "[9]; [18]", "value": 800, "unit": "nM"}, {"measurement": "IC90", "setting": "[9]; [18]", "value": "> 100000", "unit": "nM"}, {"measurement": "IC50", "setting": "[9]; [19]", "value": 900, "unit": "nM"}, {"measurement": "IC90", "setting": "[9]; [19]", "value": "> 100000", "unit": "nM"}, {"measurement": "IC50", "setting": "[9]; [20]", "value": 1200, "unit": "nM"}, {"measurement": "IC90", "setting": "[9]; [20]", "value": "> 100000", "unit": "nM"}, {"measurement": "virus replication compared to control (DMSO only)", "setting": "[9]; prophylaxis 24 h before RSV B1 infection, FIG. 3", "value": "significantly (**** p<0.0001) inhibited the virus replication"}, {"measurement": "virus replication compared to control (DMSO only)", "setting": "[9]; treated 24 h after RSV B1 infection, FIG. 4", "value": "significantly (**** p<0.0001) inhibited the virus replication"}, {"measurement": "OAT3 Raw Ct Value", "setting": "[10]", "value": "undetectable levels of OAT3 transcripts; also recorded: No Ct"}, {"measurement": "inhibition of virus replication", "setting": "[11]", "value": "picomolar levels of probenecid were effective at inhibiting virus replication"}, {"measurement": "effect on hMPV infection (lung plaque assay)", "setting": "[12]", "value": "Prophylactically and Therapeutically Reduces Human Metapneumovirus (HMPV) Infection"}, {"measurement": "lung virus titers compared to control (PBS)", "setting": "[13]; female BALB/c mice", "value": "significantly (p<0.0001) reduced lung virus titer; also recorded: significant (**** p<0.0001) reduction in lung viral titers"}, {"measurement": "lung virus titers compared to control (PBS)", "setting": "[13]; male BALB/c mice", "value": "significantly (p<0.0001) reduced lung virus titer; also recorded: significant (**** p<0.0001) reduction in lung viral titers"}, {"measurement": "absorption", "setting": "[14]; po", "value": "completely absorbed after oral administration"}, {"measurement": "time to peak plasma concentration", "setting": "[14]; po", "value": "2 to 4", "unit": "h"}, {"measurement": "half life", "setting": "[14]", "value": "6 to 12", "unit": "h"}, {"measurement": "half-life in plasma", "setting": "[14]", "value": "less than 5 hr to more than 8 hr"}]}]}
